Numbers after ± are expanded uncertainties.
Conditions: Liquid, Ebulliometric method (Recirculating still)

CCOC(C)OCC [1,1-diethoxyethane]
vapor or sublimation pressure (328.35 K): 19 ± 0.2 kPa
vapor or sublimation pressure (341.62 K): 32.1 ± 0.2 kPa
vapor or sublimation pressure (345.13 K): 36.7 ± 0.2 kPa
vapor or sublimation pressure (348.33 K): 41.1 ± 0.2 kPa
vapor or sublimation pressure (353.38 K): 49.2 ± 0.2 kPa
vapor or sublimation pressure (357.95 K): 57.9 ± 0.3 kPa
vapor or sublimation pressure (361.96 K): 66.1 ± 0.3 kPa
vapor or sublimation pressure (364.68 K): 72.3 ± 0.3 kPa
vapor or sublimation pressure (366.99 K): 77.9 ± 0.3 kPa
vapor or sublimation pressure (369.09 K): 83.1 ± 0.3 kPa
vapor or sublimation pressure (371.7 K): 90.1 ± 0.3 kPa
vapor or sublimation pressure (373.41 K): 94.8 ± 0.3 kPa
vapor or sublimation pressure (375.27 K): 100 ± 0.3 kPa
